Assay results reported in US20230034584A1, “INHIBITORS OF SHP2” (Bayer Aktiengesellschaft, priority 2019, published 2023).
Like-named read-outs stand apart in the source and are kept apart here.

Legend:
[1] = tested on: 20 other PTPs; settings: literature value; cited from earlier work
[2] = tested on: MRL/lpr mice; settings: MRL/lpr mice treated with the SHP2 inhibitor; cited from earlier work
[3] = tested on: C57/Bl6J mice with UUO; assay: UUO mouse model, macrophage infiltration by flow cytometry (CD45, F4/80); assay type: in vivo; settings: 1 and 10 mg/kg once daily p.o.
Method: Experiments indicative for chronic kidney diseases were carried out in unilateral ureteral obstruction (UUO) mouse models (examples 1). Such treatment results in the short version of the UUO model (3 days) in pronounced macrophage infiltration into the affected kidney, which is one of the triggers for the subsequent interstitial fibrosis and nephron damage. Collagen expression is increased in UUO after 10 days as a result of renal fibrosis, while alpha-smooth muscle actin (ASMA) expression is increased as a result of reduced renal function, or fibroblast expansion (see Chevalier et al, 2009).
(§1) The study was performed on male C57/Bl6J mice (age: 7-8 weeks) that were obtained from Charles River. Mice were anesthetized with continuous inhaled isoflurane, and the left ureter was exposed via a mid-abdominal incision. The mid-ureter was obstructed by two point ligation with silk sutures. The SHAM-operated mouse (n=6) underwent the same procedure except for the obstruction of the left ureter. […] As a placebo, a solution without active ingredient was used (group 2), and a sham operated group with unligated kidney was used as a […] (group 1)
The infiltration of macrophages in response to the renal injury was measured in a flow cytometry assay with detection antibodies binding to the pan-leukocyte marker CD45, as well as to the macrophage-specific antigen. F4/80.

[4] = log D; assay type: physicochemical
[5] = tested on: pERK levels in the injured kidneys; assay: Phospho-ERK quantification in kidney lysates (HTRF), UUO mice; assay type: in vivo, mouse; settings: 1 and 10 mg/kg once daily p.o.
Method: Kidney tissue from animal studies was homogenized in supplemented HTRF lysis buffer (Cisbio). The volume of lysis buffer is adjusted at 1 mL per 100 mg tissue. Homogenization was performed with […] steel beads in Mixer Mill (Retsch, MM300) for 2.5 min/25 Hz, followed by sample cooling on ice. The protein concentration in tissue lysates was adjusted to 0.1-0.5 mg/mL and HTRF pERK assay performed as described above.
as §1

[6] = tested on: ERK1/2 Thr202/Tyr204-phosphorylation in human renal proximal tubular epithelial cells (RPTEC); assay: Phospho-ERK cellular assay (HTRF); assay type: cell-based; settings: read-out: IC50, inhibition of ERK phosphorylation
Method: Cellular pERK assay was used to determine compound activity on modulating ERK1/2 Thr202/Tyr204-phosphorylation in renal cells. […] The intracellular levels of ERK1/2 phosphorylated at Thr202/Tyr204 were quantified with Advanced Phospho-ERK HTRF assay (Cisbio, Cat. #64AERPEH). Compound incubation was terminated by addition of 16 μL lysis buffer (Cisbio) and 4 μL pERK HTRF® antibody cocktail (Cisbio).

[7] = tested on: C57/Bl6J mice with UUO; assay: Unilateral ureteral obstruction (UUO) mouse model, 10 days, fibrosis markers; assay type: in vivo; settings: for αSMA-positive area within the obstructed kidney / Collagen content (Sirius Red/Fast Green staining) of obstructed kidney: ten days, histology
Method: Experiments indicative for chronic kidney diseases were carried out in unilateral ureteral obstruction (UUO) mouse models (examples 1). Such treatment results in the short version of the UUO model (3 days) in pronounced macrophage infiltration into the affected kidney, which is one of the triggers for the subsequent interstitial fibrosis and nephron damage. Collagen expression is increased in UUO after 10 days as a result of renal fibrosis, while alpha-smooth muscle actin (ASMA) expression is increased as a result of reduced renal function, or fibroblast expansion (see Chevalier et al, 2009). The study was performed on male C57/Bl6J mice (age: 7-8 weeks) that were obtained from Charles River. Mice were anesthetized with continuous inhaled isoflurane, and the left ureter was exposed via a mid-abdominal incision. The mid-ureter was obstructed by two point ligation with silk sutures. The SHAM-operated mouse (n=6) underwent the same procedure except for the obstruction of the left ureter. The mice were randomized into four groups (n=10 each group): UUO plus vehicle (10% EtOH/40% PEG/50% water), UUO plus 3 [mg/kg] SHP099, UUO plus 30 [mg/kg] SHP099. Mice were dosed bidaily with vehicle and SHP099. The forth group of mice with UUO was treated once daily with Tivozanib (technical control). At ten days after surgery, mice were euthanized, and kidneys were collected and divided in two parts. One part was snap-frozen in liquid nitrogen for RNA analysis. The other part was stored in Davidson's fixative for the preparation of histological sections. Total RNA was isolated from parts of harvested kidneys. Kidney tissue was homogenized and RNA was obtained and transcribed to cDNA. Using TaqMan real time PCR renal mRNA expression of fibrotic markers was analyzed in kidney tissues. For the assessment of fibrosis on the protein level paraffin tissue sections were stained with alpha-smooth muscle actin (αSMA) and Sirius Red/Fast Green Collagen Stainings using standard procedures. Quantitative measurements of alpha-smooth muscle actin (αSMA)-positive as well as Sirius Red (Collagen) positive areas within the kidneys were obtained by computer image analysis using the Axio Scan Z1 (Zeiss) microscope and the Zen software. All data are expressed as means±S.D. Differences between groups were analyzed by one-way ANOVA with Dunnett's corrections for multiple comparisons. Statistical significance was defined as p<0.05.

[8] = 3 and 30 mg/kg bidaily, ten days after surgery, TaqMan PCR
[9] = human proximal tubular epithelial cells (immortalized RPTEC), pERK HTRF

For `Cn1c(-c2cccc(NC(=O)C(=O)Nc3ccc(-c4ccsc4)cc3)c2)c(I)c2cc(C(=O)O)c(O)cc21` [11a-1], the “selectivity against any of 20 other PTPs” value [1] is given as over 5 fold and the “progression of kidney disease in SLE-prone mice” value [2] is given as “prevented the progression of kidney disease”.

In the case of `Cc1nc(N2CCC3(CC2)CO[C@@H](C)[C@H]3N)c(CO)nc1-c1cccc(Cl)c1Cl` [RMC-4550, [3-[(3S,4S)-4-amino-3-methyl-2-oxa-8-azaspiro[4.5]decan-8-yl]-6-(2,3-dichlorophenyl)-5-methylpyrazin-2-yl}methanol], the “macrophage infiltration into the kidney” value [3] is reported as “significant, dose-dependent reduction”, the logD [4] is reported as 2.2 and the “pERK levels in the injured kidneys” value [5] is reported as “dose-dependently reduced”. It also gave an IC50 ([6]; Homo sapiens, RPTEC) of 12.6 nM.

In the case of `CC1(N)CCN(c2cnc(-c3cccc(Cl)c3Cl)c(N)n2)CC1` [SHP099], the “αSMA-positive area within the obstructed kidney” value ([7]; 3 mg/kg bidaily) is reported as “significant reduction”, the “collagen RNA expression in kidney” value [7, 8] is reported as “dose-dependent reduction” and the “αSMA RNA expression in kidney” value [7, 8] is reported as “dose-dependent reduction”. The “Collagen content (Sirius Red/Fast Green staining) of obstructed kidney” value ([7]; both dosages (3 and 30 mg/kg bidaily)) was “dose dependently and significantly reduced” and the IC50 [6, 9] was 306 nM.

`C[C@@H]1OCC2(CCN(c3cnc(Sc4ccnc(N)c4Cl)c(N)n3)CC2)[C@@H]1N` [TNO-155, (3S,4S)-8-(6-amino-5-((2-amino-3-chloropyridin-4-yl)thio)pyrazin-2-yl)-3-methyl-2-oxa-8-azaspiro[4.5]decan-4-amine] gave an IC50 [6, 9] of 46.4 nM.

With `COc1cc2nccc(Oc3ccc(NC(=O)Nc4cc(C)on4)c(Cl)c3)c2cc1OC` [Tivozanib] the “Collagen content (Sirius Red/Fast Green staining) of obstructed kidney” value ([7]; once daily (technical control)) was “significantly reduced” and the “αSMA-positive area within the obstructed kidney” value ([7]; once daily (technical control)) was “significantly reduced”.
